{"source": "paper PMC10924921", "about": "“Mi-2β promotes immune evasion in melanoma by activating EZH2 methylation” (Nature Communications, 2024)", "experiment_in_all_cases": "biochemical", "set-up_in_all_cases": "KINOMEscan active-site competition binding panel (468 kinase assays), per cent of control at 1000 nM", "conditions_in_all_cases": "KINOMEscan per cent of control (binding competition); read-out: Percent Control", "key": {"[1]": {"biological_target": "EPHB1 (Homo sapiens, UniProt P54762)", "description": "(§1) Figure S7 / Percent Control"}, "[2]": {"biological_target": "NEK2 (Homo sapiens, UniProt P51955)", "sequence (P51955 whole entry)": "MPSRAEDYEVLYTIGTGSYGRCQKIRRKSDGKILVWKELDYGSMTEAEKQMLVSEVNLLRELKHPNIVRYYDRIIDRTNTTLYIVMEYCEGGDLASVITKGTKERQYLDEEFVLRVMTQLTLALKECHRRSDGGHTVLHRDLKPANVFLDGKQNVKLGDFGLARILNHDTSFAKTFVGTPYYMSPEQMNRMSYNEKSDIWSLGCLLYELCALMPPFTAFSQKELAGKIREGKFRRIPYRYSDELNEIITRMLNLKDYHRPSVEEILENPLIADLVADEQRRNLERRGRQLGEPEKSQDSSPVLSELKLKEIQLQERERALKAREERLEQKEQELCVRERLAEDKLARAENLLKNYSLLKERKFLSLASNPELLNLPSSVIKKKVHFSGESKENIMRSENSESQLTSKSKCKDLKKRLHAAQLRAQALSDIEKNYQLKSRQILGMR", "description": "as §1"}, "[3]": {"biological_target": "MYLK4 (Homo sapiens, UniProt Q86YV6)", "sequence (Q86YV6 whole entry)": "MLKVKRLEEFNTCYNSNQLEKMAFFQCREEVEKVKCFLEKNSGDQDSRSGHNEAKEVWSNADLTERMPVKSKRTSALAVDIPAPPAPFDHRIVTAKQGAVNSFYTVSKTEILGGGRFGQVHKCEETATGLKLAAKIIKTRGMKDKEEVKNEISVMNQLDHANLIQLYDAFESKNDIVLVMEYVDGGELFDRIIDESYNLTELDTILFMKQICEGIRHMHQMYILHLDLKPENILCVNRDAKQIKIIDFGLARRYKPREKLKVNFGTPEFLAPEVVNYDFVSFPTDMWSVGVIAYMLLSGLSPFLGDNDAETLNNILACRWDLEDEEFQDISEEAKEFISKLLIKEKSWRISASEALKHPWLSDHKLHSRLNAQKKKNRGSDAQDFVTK", "description": "as §1"}, "[4]": {"biological_target": "T1, PCTK1 (Homo sapiens, UniProt Q00536)", "T1 construct": "gene CDK16", "description": "as §1"}, "[5]": {"biological_target": "FLT3(D835V) (Homo sapiens, UniProt P36888, D835V)", "description": "as §1"}, "[6]": {"biological_target": "CSNK1A1 (Homo sapiens, UniProt P48729)", "description": "as §1"}, "[7]": {"biological_target": "CASK (Homo sapiens, UniProt O14936)", "description": "as §1"}, "[8]": {"biological_target": "T2, ABL1(E255K)-phosphorylated (Homo sapiens, UniProt P00519, E255K)", "T2 construct": "phosphorylated", "description": "as §1"}, "[9]": {"biological_target": "CSF1R-autoinhibited (Homo sapiens, UniProt P07333)", "sequence (P07333 whole entry)": "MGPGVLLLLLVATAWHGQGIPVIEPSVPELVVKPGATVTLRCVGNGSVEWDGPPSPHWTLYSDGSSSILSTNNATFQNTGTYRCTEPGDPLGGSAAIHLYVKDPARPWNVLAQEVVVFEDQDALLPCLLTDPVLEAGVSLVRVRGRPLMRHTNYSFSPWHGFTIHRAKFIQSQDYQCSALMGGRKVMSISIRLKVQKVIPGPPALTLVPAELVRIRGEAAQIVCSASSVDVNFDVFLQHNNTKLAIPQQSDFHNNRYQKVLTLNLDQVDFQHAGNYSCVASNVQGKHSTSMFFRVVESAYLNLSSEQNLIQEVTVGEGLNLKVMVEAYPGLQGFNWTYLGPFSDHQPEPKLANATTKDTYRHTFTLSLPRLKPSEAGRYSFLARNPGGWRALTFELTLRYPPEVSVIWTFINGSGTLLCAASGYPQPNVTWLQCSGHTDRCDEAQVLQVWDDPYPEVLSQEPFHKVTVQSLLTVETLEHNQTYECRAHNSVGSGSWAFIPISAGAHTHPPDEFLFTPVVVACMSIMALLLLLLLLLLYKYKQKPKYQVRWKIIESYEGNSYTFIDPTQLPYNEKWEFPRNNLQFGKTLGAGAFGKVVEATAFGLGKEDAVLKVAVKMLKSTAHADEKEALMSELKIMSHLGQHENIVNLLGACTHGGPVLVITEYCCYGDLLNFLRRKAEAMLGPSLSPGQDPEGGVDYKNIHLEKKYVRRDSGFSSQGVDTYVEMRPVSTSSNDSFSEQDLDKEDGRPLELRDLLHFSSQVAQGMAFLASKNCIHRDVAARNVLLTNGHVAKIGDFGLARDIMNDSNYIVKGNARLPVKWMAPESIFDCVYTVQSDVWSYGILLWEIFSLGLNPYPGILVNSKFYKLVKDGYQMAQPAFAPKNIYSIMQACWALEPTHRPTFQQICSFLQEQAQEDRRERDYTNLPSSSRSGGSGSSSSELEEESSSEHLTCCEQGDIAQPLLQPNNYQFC", "description": "as §1"}, "[10]": {"biological_target": "T3, PFTAIRE2 (Homo sapiens, UniProt Q96Q40)", "T3 construct": "gene CDK15", "description": "as §1"}, "[11]": {"biological_target": "CSNK2A2 (Homo sapiens, UniProt P19784)", "description": "as §1"}, "[12]": {"biological_target": "PIK3CA (Homo sapiens, UniProt P42336)", "description": "as §1"}, "[13]": {"biological_target": "RET(M918T) (Homo sapiens, UniProt P07949, M918T)", "description": "as §1"}, "[14]": {"biological_target": "NEK4 (Homo sapiens, UniProt P51957)", "description": "as §1"}, "[15]": {"biological_target": "IRAK1 (Homo sapiens, UniProt P51617)", "description": "as §1"}, "[16]": {"biological_target": "T4, JAK2(JH1domain-catalytic) (Homo sapiens, UniProt O60674)", "T4 construct": "JH1domain-catalytic", "T4 sequence (O60674 whole entry)": "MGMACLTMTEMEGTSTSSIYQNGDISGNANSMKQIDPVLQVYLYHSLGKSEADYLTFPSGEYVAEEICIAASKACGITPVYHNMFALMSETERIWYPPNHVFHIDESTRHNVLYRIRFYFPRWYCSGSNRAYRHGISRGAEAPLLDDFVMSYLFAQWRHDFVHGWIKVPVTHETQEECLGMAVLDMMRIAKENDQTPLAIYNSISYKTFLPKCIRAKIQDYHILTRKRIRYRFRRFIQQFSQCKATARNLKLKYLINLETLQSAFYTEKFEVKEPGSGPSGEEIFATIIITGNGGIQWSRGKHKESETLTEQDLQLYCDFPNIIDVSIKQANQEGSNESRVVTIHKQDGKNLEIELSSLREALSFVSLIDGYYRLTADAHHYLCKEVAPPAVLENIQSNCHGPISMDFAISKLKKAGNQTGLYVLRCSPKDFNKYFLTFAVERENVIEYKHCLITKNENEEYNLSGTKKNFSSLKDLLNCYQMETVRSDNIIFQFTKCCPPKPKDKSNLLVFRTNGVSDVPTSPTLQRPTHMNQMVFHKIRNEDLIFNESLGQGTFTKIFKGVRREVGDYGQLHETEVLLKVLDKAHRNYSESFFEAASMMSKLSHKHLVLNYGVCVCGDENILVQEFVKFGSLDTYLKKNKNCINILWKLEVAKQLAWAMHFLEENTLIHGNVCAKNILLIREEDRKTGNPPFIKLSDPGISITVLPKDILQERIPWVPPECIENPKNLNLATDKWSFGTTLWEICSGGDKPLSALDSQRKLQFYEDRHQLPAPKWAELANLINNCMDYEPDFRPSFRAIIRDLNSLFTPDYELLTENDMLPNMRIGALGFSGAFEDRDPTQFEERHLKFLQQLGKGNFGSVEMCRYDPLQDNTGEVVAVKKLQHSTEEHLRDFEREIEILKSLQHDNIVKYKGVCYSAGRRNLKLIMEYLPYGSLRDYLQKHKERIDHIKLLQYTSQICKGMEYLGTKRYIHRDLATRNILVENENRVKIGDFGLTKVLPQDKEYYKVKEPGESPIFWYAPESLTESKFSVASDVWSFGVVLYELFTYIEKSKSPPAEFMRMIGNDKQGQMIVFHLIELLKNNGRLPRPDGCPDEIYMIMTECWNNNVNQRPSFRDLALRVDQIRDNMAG", "description": "as §1"}, "[17]": {"biological_target": "EIF2AK1 (Homo sapiens, UniProt Q9BQI3)", "sequence (Q9BQI3 whole entry)": "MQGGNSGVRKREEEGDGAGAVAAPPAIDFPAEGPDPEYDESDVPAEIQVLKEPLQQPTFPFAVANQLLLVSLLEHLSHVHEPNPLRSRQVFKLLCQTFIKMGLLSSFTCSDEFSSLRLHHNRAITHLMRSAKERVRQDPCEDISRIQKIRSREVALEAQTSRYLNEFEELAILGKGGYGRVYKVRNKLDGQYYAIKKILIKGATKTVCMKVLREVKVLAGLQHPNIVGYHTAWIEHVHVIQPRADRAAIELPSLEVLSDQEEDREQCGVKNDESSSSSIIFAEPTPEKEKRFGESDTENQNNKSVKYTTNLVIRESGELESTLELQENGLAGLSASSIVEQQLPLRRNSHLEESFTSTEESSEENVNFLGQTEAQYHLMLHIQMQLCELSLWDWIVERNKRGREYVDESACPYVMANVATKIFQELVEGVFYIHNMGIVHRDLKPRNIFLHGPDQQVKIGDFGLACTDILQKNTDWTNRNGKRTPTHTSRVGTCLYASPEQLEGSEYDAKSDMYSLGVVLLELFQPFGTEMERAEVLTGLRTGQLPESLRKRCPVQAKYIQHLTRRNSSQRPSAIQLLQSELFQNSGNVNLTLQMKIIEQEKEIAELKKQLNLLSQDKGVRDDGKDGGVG", "description": "as §1"}, "[18]": {"biological_target": "MUSK (Homo sapiens, UniProt O15146)", "description": "as §1"}, "[19]": {"biological_target": "DMPK (Homo sapiens, UniProt Q09013)", "description": "as §1"}, "[20]": {"biological_target": "MAP4K3 (Homo sapiens, UniProt Q8IVH8)", "description": "as §1"}, "[21]": {"biological_target": "CLK3 (Homo sapiens, UniProt P49761)", "description": "as §1"}, "[22]": {"biological_target": "PIK3C2G (Homo sapiens, UniProt O75747)", "sequence (O75747 whole entry)": "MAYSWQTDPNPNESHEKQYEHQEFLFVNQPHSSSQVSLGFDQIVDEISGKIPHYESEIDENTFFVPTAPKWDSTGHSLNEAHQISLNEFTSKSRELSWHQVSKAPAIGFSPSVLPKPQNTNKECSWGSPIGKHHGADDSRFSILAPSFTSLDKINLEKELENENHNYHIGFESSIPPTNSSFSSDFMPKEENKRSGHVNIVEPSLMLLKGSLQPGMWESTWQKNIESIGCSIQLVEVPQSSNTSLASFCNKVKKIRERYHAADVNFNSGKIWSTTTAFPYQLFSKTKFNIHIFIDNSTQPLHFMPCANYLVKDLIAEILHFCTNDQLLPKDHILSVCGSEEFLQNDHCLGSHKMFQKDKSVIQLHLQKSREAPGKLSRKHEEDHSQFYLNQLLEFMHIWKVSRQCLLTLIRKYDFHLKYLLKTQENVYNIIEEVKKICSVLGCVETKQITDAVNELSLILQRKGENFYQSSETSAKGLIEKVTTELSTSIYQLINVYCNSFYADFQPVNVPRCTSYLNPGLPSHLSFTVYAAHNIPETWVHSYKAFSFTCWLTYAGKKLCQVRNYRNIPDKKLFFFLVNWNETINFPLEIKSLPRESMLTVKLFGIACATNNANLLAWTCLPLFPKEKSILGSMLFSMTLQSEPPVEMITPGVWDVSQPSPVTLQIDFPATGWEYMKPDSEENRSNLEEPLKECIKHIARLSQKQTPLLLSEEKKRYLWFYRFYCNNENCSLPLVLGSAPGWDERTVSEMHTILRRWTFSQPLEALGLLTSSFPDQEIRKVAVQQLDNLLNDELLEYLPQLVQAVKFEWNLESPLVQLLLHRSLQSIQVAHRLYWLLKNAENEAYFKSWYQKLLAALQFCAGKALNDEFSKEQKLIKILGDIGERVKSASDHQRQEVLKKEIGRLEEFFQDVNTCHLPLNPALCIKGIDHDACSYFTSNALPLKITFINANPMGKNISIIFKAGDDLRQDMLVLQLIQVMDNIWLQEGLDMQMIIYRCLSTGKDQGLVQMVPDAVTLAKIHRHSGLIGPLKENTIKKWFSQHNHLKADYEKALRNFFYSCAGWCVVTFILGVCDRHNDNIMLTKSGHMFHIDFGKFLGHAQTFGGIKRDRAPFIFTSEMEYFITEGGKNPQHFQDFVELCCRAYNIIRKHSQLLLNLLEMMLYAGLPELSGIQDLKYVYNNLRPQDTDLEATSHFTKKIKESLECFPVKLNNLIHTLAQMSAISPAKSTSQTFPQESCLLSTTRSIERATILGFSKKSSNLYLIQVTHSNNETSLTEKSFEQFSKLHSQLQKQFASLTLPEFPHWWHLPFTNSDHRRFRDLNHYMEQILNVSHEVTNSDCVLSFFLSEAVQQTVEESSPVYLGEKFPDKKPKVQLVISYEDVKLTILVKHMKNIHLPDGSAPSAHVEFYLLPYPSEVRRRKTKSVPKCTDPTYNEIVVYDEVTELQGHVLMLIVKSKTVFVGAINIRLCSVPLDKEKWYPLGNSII", "description": "as §1"}, "[23]": {"biological_target": "T5, DRAK1 (Homo sapiens, UniProt Q9UEE5)", "T5 construct": "gene STK17A", "description": "as §1"}, "[24]": {"biological_target": "CDK9 (Homo sapiens, UniProt P50750)", "description": "as §1"}, "[25]": {"biological_target": "T6, ERK4 (Homo sapiens, UniProt P31152)", "T6 construct": "gene MAPK4", "description": "as §1"}}}
{"smiles": "Cn1c(=O)[nH]c2ccc(-c3cccc(C(=O)NC4CCn5ccnc5C4)c3)cc21", "note": "(stereo not shown) [Z36-MP5]", "values": [{"measurement": "remaining binding at 1 µM", "setting": "[1]", "value": 89, "unit": "%"}, {"measurement": "remaining binding at 1 µM", "setting": "[2]", "value": 100, "unit": "%"}, {"measurement": "remaining binding at 1 µM", "setting": "[3]", "value": 93, "unit": "%"}, {"measurement": "remaining binding at 1 µM", "setting": "[4]", "value": 82, "unit": "%"}, {"measurement": "remaining binding at 1 µM", "setting": "[5]", "value": 55, "unit": "%"}, {"measurement": "remaining binding at 1 µM", "setting": "[6]", "value": 74, "unit": "%"}, {"measurement": "remaining binding at 1 µM", "setting": "[7]", "value": 60, "unit": "%"}, {"measurement": "remaining binding at 1 µM", "setting": "[8]", "value": 79, "unit": "%"}, {"measurement": "remaining binding at 1 µM", "setting": "[9]", "value": 54, "unit": "%"}, {"measurement": "remaining binding at 1 µM", "setting": "[10]", "value": 90, "unit": "%"}, {"measurement": "remaining binding at 1 µM", "setting": "[11]", "value": 63, "unit": "%"}, {"measurement": "remaining binding at 1 µM", "setting": "[12]", "value": 97, "unit": "%"}, {"measurement": "remaining binding at 1 µM", "setting": "[13]", "value": 90, "unit": "%"}, {"measurement": "remaining binding at 1 µM", "setting": "[14]", "value": 69, "unit": "%"}, {"measurement": "remaining binding at 1 µM", "setting": "[15]", "value": 80, "unit": "%"}, {"measurement": "remaining binding at 1 µM", "setting": "[16]", "value": 74, "unit": "%"}, {"measurement": "remaining binding at 1 µM", "setting": "[17]", "value": 73, "unit": "%"}, {"measurement": "remaining binding at 1 µM", "setting": "[18]", "value": 83, "unit": "%"}, {"measurement": "remaining binding at 1 µM", "setting": "[19]", "value": 99, "unit": "%"}, {"measurement": "remaining binding at 1 µM", "setting": "[20]", "value": 51, "unit": "%"}, {"measurement": "remaining binding at 1 µM", "setting": "[21]", "value": 91, "unit": "%"}, {"measurement": "remaining binding at 1 µM", "setting": "[22]", "value": 100, "unit": "%"}, {"measurement": "remaining binding at 1 µM", "setting": "[23]", "value": 96, "unit": "%"}, {"measurement": "remaining binding at 1 µM", "setting": "[24]", "value": 37, "unit": "%"}, {"measurement": "remaining binding at 1 µM", "setting": "[25]", "value": 91, "unit": "%"}]}
